# Results from ChEMBL document CHEMBL4418304, “Combinations for the treatment of kidney stones” (2017).
# Molecular target: T1, Hydroxyproline dehydrogenase (Homo sapiens, UniProt Q9UF12)
# T1 sequence (Q9UF12 whole entry): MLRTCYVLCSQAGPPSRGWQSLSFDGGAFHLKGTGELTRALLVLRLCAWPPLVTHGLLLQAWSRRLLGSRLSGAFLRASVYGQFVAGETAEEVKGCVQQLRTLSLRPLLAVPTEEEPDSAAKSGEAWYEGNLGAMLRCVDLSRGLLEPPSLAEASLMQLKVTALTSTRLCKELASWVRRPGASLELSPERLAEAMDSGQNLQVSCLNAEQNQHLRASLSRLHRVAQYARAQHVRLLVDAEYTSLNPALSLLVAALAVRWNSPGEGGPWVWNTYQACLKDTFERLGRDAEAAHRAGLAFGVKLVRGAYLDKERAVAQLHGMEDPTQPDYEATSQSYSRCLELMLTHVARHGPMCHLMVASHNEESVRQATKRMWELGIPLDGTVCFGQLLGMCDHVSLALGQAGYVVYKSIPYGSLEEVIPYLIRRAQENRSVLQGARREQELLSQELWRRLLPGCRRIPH
# Assay: Inhibition of recombinant human HYPDH expressed in Escherichia coli using hydroxyproline as substrate preincubated for 5 mins followed by substrate addition in presence of FAD as cofactor
# Details: not given
row,IC50,SMILES
1,Nd(Insoluble),O=C(O)c1ccco1

# Same assay, conditions: read-out: IC50
row,SMILES,IC50 [µM]
1,O=C(O)C1=NN=C(O)C1,2900
2,O=C(O)[C@H]1CC[C@H](O)C1,600
3,O=C(O)[C@@H]1C[C@H](O)CS1,370
4,O=C(O)[C@@H]1CC[C@@H](O)C1,2100
5,O=C(O)c1cc(O)cs1,< 1000
6,O=C(O)[C@@H]1CC(O)(O)CS1,290
7,O=C1CS[C@H](C(=O)O)C1,320
8,O=C(O)[C@H]1CC[C@@H](O)C1,> 10000

# Continued, values first:
row,IC50 [µM],SMILES
1,1500,O=C(O)C1CCCO1 (stereo unspecified)
2,370,O=C1CC[C@@H](C(=O)O)C1
3,330,O=C(O)[C@@H]1C[C@@H](O)CS1
4,380,O=C1CC[C@H](C(=O)O)C1
5,480,O=C(O)C[C@H]1CC[C@H](O)C1
6,630,N[C@H]1CC[C@H](C(=O)O)C1

# Molecular target: T2, 2-Hydroxyacid oxidase 1 (Homo sapiens, UniProt Q9UJM8)
# T2 sequence (Q9UJM8 whole entry): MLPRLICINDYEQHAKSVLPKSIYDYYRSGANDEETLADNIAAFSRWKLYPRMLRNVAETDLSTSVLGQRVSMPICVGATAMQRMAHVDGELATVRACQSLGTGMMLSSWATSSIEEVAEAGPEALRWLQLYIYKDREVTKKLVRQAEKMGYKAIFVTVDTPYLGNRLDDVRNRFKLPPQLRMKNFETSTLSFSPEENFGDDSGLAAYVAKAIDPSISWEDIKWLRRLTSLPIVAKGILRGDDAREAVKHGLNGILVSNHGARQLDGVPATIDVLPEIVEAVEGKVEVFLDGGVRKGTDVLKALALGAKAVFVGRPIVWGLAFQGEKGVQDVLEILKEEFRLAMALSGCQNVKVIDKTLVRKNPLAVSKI
# Assay: Inhibition of recombinant human liver HAOX1 using glycolate as substrate preincubated for 5 mins followed by substrate addition in presence of […]
# Details: not given
row,Ki [nM],SMILES
1,15,CCCCCCCCCCCCSc1[nH]nnc1C(=O)O
